# Laboratory results published in ChEMBL document CHEMBL3039007, “Structure-based identification of OATP1B1/3 inhibitors” (Mol Pharmacol, 2013).
# Tests used:
# [1] = molecular target: T1, Solute carrier organic anion transporter family member 1B1 (Homo sapiens, UniProt Q9Y6L6); conditions: chinese hamster, cho, 10 µM
# T1 sequence (Q9Y6L6 whole entry): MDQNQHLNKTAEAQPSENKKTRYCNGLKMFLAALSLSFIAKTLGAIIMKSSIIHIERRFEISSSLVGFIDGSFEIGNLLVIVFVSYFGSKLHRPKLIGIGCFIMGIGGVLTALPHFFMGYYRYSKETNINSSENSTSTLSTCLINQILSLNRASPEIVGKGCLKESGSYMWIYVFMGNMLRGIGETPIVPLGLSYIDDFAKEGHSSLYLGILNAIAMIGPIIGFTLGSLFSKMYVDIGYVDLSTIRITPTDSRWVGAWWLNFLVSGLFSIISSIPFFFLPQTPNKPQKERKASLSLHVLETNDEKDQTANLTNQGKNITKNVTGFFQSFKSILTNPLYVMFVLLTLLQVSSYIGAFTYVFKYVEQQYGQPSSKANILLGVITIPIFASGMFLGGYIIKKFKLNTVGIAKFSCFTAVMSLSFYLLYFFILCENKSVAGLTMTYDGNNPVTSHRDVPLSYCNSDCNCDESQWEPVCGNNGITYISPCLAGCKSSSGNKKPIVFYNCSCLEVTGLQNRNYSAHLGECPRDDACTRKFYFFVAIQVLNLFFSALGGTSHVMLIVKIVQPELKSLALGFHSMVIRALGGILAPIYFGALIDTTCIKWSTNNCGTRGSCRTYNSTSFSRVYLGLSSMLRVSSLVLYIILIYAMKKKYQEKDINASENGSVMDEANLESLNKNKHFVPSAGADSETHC
# [2] = molecular target: T2, Solute carrier organic anion transporter family member 1B3 (Homo sapiens, UniProt Q9NPD5); conditions: chinese hamster, cho, 10 µM
# T2 sequence (Q9NPD5 whole entry): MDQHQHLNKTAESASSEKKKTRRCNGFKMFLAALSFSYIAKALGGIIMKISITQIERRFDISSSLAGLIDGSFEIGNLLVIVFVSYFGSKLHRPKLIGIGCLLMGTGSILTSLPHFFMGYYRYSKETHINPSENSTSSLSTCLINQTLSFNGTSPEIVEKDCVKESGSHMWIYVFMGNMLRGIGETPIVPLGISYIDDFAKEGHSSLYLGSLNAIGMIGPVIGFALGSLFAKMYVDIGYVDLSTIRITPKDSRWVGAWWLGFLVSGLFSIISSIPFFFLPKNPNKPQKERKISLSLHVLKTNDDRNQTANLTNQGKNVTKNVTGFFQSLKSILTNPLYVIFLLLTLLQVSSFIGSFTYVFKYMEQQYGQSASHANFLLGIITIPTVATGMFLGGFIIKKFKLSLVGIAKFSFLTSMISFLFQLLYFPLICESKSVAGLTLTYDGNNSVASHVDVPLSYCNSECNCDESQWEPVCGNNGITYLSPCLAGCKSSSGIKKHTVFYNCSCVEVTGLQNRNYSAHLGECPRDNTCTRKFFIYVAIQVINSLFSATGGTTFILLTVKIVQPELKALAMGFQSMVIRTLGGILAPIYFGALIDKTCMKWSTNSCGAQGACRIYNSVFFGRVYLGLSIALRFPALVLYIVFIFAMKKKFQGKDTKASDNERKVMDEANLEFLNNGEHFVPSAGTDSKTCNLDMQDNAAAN
residual activity [1],residual activity [2],Structure (SMILES)
91.69%,93.37%,CC(=O)Oc1ccccc1C(=O)Oc1ccccc1C(=O)O [DIPLOSALSALATE]
108.3%,116.8%,CC[C@H](C)[C@H](N)C(=O)N1CCC[C@H]1C(=O)N[C@H](C(=O)O)[C@@H](C)CC [DIPROTIN A]
115.7%,102.1%,CC(=O)Oc1cccc(C(=O)O)c1OC(C)=O [DIPYROCETYL]
72.95%,89.51%,Cc1c(N(C)CS(=O)(=O)[O-])c(=O)n(-c2ccccc2)n1C.[Na+] [DIPYRONE SODIUM]
109.1%,95.43%,CC[C@H]1OC(=O)[C@H](C)[C@@H](O[C@H]2C[C@@](C)(OC)[C@@H](O)[C@H](C)O2)[C@H](C)[C@@H](O[C@@H]2O[C@H](C)C[C@H](N(C)C)[C@H]2O)[C@](C)(O)C[C@@H](C)[C@@H]2N[C@@H](COCCOC)O[C@H]([C@H]2C)[C@]1(C)O [DIRITHROMYCIN]
85.54%,85.35%,C[C@@H]1CC[C@@]2(OC1)O[C@H]1C[C@H]3[C@@H]4CC=C5C[C@@H](O)CC[C@]5(C)[C@H]4CC[C@]3(C)[C@H]1[C@@H]2C [DISOGENIN]
91.62%,105.8%,CC(CCc1ccc(O)cc1)NCCc1ccc(O)c(O)c1.Cl (stereo not drawn) [DOBUTAMINE HYDROCHLORIDE]
99.44%,112.3%,CCN(CC)CCOC(=O)C(c1ccccc1)C1CCCCC1.Cl (stereo not drawn) [DROFENINE HYDROCHLORIDE]
71.05%,96.03%,OCC(O)CN1CCN(c2ccccc2)CC1 (stereo not drawn) [DROPROPIZINE]
88.51%,86.99%,COc1ccc([C@H]2COc3c(ccc(O)c3OC)C2)c(OC)c1O [DUARTIN (-)]
113.2%,110.8%,"COc1ccc2c(c1OC)OC[C@@H](c1ccc(OC)c(OC)c1OC)C2 [DUARTIN, DIMETHYL ETHER]"
170.9%,83.62%,CCCCOc1ccc(C(=O)CCN2CCCCC2)cc1.Cl [DYCLONINE HYDROCHLORIDE]
92.75%,94.34%,Cn1c(=O)c2c(ncn2CC(O)CO)n(C)c1=O (stereo not drawn) [DYPHYLLINE]
108.3%,119.7%,CCOc1ccc2c(c1)C(C)=CC(C)(C)N2 [E324]
69.3%,30.48%,CC1(C)CC[C@]2(C(=O)O)[C@H](O)C[C@]3(C)C(=CC[C@@H]4[C@@]5(C)CC[C@H](O)C(C)(C)[C@@H]5CC[C@]43C)[C@@H]2C1 [ECHINOCYSTIC ACID]
81.77%,82.24%,O=C(O)CN(CCN(CC(=O)O)CC(=O)O)CC(=O)O [EDETIC ACID]
92.48%,109.7%,CCc1cn([C@H]2C[C@H](O)[C@@H](CO)O2)c(=O)[nH]c1=O [EDOXUDINE]
66.64%,84.98%,CCCCCCCC/C=C/CCCCCCCCOP(=O)([O-])OCC[N+](C)(C)C [ELAIDYLPHOSPHOCHOLINE]
75.25%,65.47%,O=c1oc2c(O)c(O)cc3c(=O)oc4c(O)c(O)cc1c4c23 [ELLAGIC ACID]

Structure (SMILES),residual activity [1],residual activity [2]
CCOP(=S)(OCC)SCCSCC [DISULFOTON],113.3%,105.1%
Cl.NCCc1ccc(O)c(O)c1 [DOPAMINE HYDROCHLORIDE],66.46%,73.49%
Clc1ccc(COC(Cn2ccnc2)c2ccc(Cl)cc2Cl)cc1.O=[N+]([O-])O (stereo not drawn) [ECONAZOLE NITRATE],146.5%,127.4%
CC[N+](C)(C)c1cccc(O)c1.[Cl-] [EDROPHONIUM CHLORIDE],79.44%,93.08%
CCC1(C2=NCCN2)Cc2ccccc2O1.Cl (stereo not drawn) [EFAROXAN HYDROCHLORIDE],80.2%,83.03%
